Target: unphosphorylated-BTK kinase domain (UP-BTK), GST-tagged human BTK (389-659aa) (Homo sapiens (Human), UniProt Q06187)
Experiment: BTK kinase Lanthascreen binding assay
Conditions: Lanthascreen tracer competition, 60 minutes incubation; pIC50 = negative log of the IC50 in molar
How it was run: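 Lanthascreen competition binding; test compound vs fluorescent tracer on unphosphorylated BTK. Output: pIC50 (−log IC50, M).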

Chain of unphosphorylated-BTK kinase domain (UP-BTK), GST-tagged human BTK (389-659aa) (Q06187 389-659): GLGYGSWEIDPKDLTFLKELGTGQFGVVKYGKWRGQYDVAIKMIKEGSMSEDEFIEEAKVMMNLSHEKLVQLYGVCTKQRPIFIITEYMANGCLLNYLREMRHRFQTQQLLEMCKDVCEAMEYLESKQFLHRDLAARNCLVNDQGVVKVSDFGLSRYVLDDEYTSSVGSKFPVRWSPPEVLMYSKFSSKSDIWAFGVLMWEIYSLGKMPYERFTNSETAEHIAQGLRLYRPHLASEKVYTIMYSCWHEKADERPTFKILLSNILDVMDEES

| Compound | BTK_I_binding pIC50 |
| --- | --- |
| C=CC(=O)N1CCC[C@@H](NC(=O)c2sc3nccc4c3c2NC(=O)N4c2cnc(Oc3ccccc3)nc2C)C1 (single isomer, unassigned) [Example 746, (R)—N-(1-Acryloylpiperidin-3-yl)-5-(*S)-(4-methyl-2-phenoxypyrimidin-5-yl)-4-oxo-4,5-dihydro-3H-1-thia-3,5,8-triazaacenaphthylene-2-carboxamide] | 8.1 |
| C=CC(=O)N1CCC[C@@H](NC(=O)c2sc3nccc4c3c2NC(=O)N4c2cccc(C(C)(C)C)c2)C1 [Example 638, (R)—N-(1-Acryloylpiperidin-3-yl)-5-(3-(tert-butyl)phenyl)-4-oxo-4,5-dihydro-3H-1-thia-3,5,8-triazaacenaphthylene-2-carboxamide] | 5.7 |
| C=CC(=O)N1CCC[C@@H](NC(=O)c2sc3nccc4c3c2NC(=O)N4c2cc(C)nc(-c3ccccc3)c2)C1 [Example 734, (R)—N-(1-Acryloylpiperidin-3-yl)-5-(2-methyl-6-phenylpyridin-4-yl)-4-oxo-4,5-dihydro-3H-1-thia-3,5,8-triazaacenaphthylene-2-carboxamide] | <6 |
| N#CN1CCC[C@@H](NC(=O)c2sc3nccc4c3c2NC(=O)N4c2ccc(Oc3ccccc3)cc2)C1 [Example 592, (R)—N-(1-Cyanopiperidin-3-yl)-4-oxo-5-(4-phenoxyphenyl)-4,5-dihydro-3H-1-thia-3,5,8-triazaacenaphthylene-2-carboxamide] | 7.4 |
| Cc1cc(Oc2ccccc2)ccc1N1C(=O)Nc2c(C(=O)N[C@H]3CCCN(C#N)C3)sc3nccc1c23 [Example 887, (S)—N-(1-Cyanopiperidin-3-yl)-5-(2-methyl-4-phenoxyphenyl)-4-oxo-4,5-dihydro-3H-1-thia-3,5,8-triazaacenaphthylene-2-carboxamide] | 7.0 |
| O=C(N[C@@H]1CCCNC1)c1sc2nccc3c2c1NC(=O)N3c1cccc(OC2CCC2)c1 [Example 621, (R)-5-(3-Cyclobutoxyphenyl)-4-oxo-N-(piperidin-3-yl)-4,5-dihydro-3H-1-thia-3,5,8-triazaacenaphthylene-2-carboxamide] | <6 |

Same assay, conditions: Lanthascreen tracer competition, 60 minutes incubation; pIC50 = negative log of the IC50 in molar; read-out: BTK_I_binding pIC50 (converted)

| Compound | IC50 [nM] |
| --- | --- |
| O=C(N[C@@H]1CCCNC1)c1sc2nccc3c2c1NC(=O)N3c1ccc(OC2CCC2)cc1 [Example 626, (R)-5-(4-Cyclobutoxyphenyl)-4-oxo-N-(piperidin-3-yl)-4,5-dihydro-3H-1-thia-3,5,8-triazaacenaphthylene-2-carboxamide] | 1260 |

Same assay, conditions: pIC50 = negative log of the IC50 in molar; 60 minutes incubation, 50 nM Tracer 236

| Compound | BTK_I_binding pIC50 |
| --- | --- |
| Cc1cc(Oc2ccccc2)ccc1N1C(=O)Nc2c(C(=O)NC3CCCCN(C)C3)sc3nccc1c23 (centres unmarked) [Example 206, 5-(2-Methyl-4-phenoxyphenyl)-N-(1-methylazepan-3-yl)-4-oxo-4,5-dihydro-3H-1-thia-3,5,8-triazaacenaphthylene-2-carboxamide] | 7.1 |
| CNCC(=O)N1CCC[C@@H](NC(=O)c2sc3nccc4c3c2NC(=O)N4c2ccc(Oc3ccccc3)cc2C)C1 [Example 91, (R)-5-(2-Methyl-4-phenoxyphenyl)-N-(1-(2-(methylamino)acetyl)piperidin-3-yl)-4-oxo-4,5-dihydro-3H-1-thia-3,5,8-triazaacenaphthylene-2-carboxamide] | 7.3 |

Same assay, conditions: pIC50 = negative log of the IC50 in molar; 60 minutes incubation, 50 nM Tracer 236; read-out: BTK_I_binding pIC50 (converted)

| Compound | IC50 [nM] |
| --- | --- |
| Cc1cc(Oc2ccccc2)ccc1N1C(=O)Nc2c(C(=O)N[C@@H]3CCCN(C(=O)/C(C#N)=[13CH]/C4CC4)C3)sc3nccc1c23 [Example 41, (R,E)-N-(1-(2-Cyano-3-^13C-cyclopropylacryloyl)piperidin-3-yl)-5-(2-methyl-4-phenoxyphenyl)-4-oxo-4,5-dihydro-3H-1-thia-3,5,8-triazaacenaphthylene-2-carboxamide] | 50.1 |

Same assay, conditions: unphosphorylated-BTK kinase domain, 50 nM Tracer 236, 60 minutes; pIC50 = negative log of the IC50 in molar

| Compound | BTK_I_binding pIC50 |
| --- | --- |
| C=CC(=O)N1CCC[C@@H](NC(=O)c2sc3nccc4c3c2NC(=O)N4c2cccc(CCC)c2)C1 [Example 533, (R)—N-(1-Acryloylpiperidin-3-yl)-4-oxo-5-(3-propylphenyl)-4,5-dihydro-3H-1-thia-3,5,8-triazaacenaphthylene-2-carboxamide] | 7.5 |
| CC(C)=C(Cl)C(=O)N1CCC[C@@H](NC(=O)c2sc3nccc4c3c2NC(=O)N4c2ccc(Oc3ccccc3)cc2C)C1 (single isomer, unassigned) [Example 438, (R)—N-(1-(2-Chloro-3-methylbut-2-enoyl)piperidin-3-yl)-5-(*S)-(2-methyl-4-phenoxyphenyl)-4-oxo-4,5-dihydro-3H-1-thia-3,5,8-triazaacenaphthylene-2-carboxamide] | 6.7 |
| Cc1cc(Oc2ccccc2)ccc1N1C(=O)Nc2c(C(=O)N[C@@H]3CCNC(C)C3)sc3nccc1c23 (single isomer, unassigned) [Example 435, 5-(*R)-(2-Methyl-4-phenoxyphenyl)-N-((4*R)-2-methylpiperidin-4-yl)-4-oxo-4,5-dihydro-3H-1-thia-3,5,8-triazaacenaphthylene-2-carboxamide] | 5.9 |
| CN1CCC[C@@H](NC(=O)c2sc3nccc4c3c2NC(=O)N4Cc2ccc(Oc3ccccc3)cc2)C1 [Example 411, (R)—N-(1-Methylpiperidin-3-yl)-4-oxo-5-(4-phenoxybenzyl)-4,5-dihydro-3H-1-thia-3,5,8-triazaacenaphthylene-2-carboxamide] | <5 |
| C=CC(=O)N1CCC[C@@H](NC(=O)c2sc3nccc4c3c2NC(=O)N4c2ccc(Oc3ccccc3)cn2)C1 [Example 513, (R)—N-(1-Acryloylpiperidin-3-yl)-4-oxo-5-(5-phenoxypyridin-2-yl)-4,5-dihydro-3H-1-thia-3,5,8-triazaacenaphthylene-2-carboxamide] | 8.2 |
| CC(C)N1C(=O)Nc2c(C(=O)N[C@@H]3CCCNC3)sc3nccc1c23 [Example 361, (R)-5-Isopropyl-4-oxo-N-(piperidin-3-yl)-4,5-dihydro-3H-1-thia-3,5,8-triazaacenaphthylene-2-carboxamide] | <5 |
| C=CC(=O)N1CCC[C@@H](NC(=O)c2sc3nccc4c3c2NC(=O)N4c2ccc(OC(C)C)cc2)C1 [Example 400, (R)—N-(1-Acryloylpiperidin-3-yl)-5-(4-isopropoxyphenyl)-4-oxo-4,5-dihydro-3H-1-thia-3,5,8-triazaacenaphthylene-2-carboxamide] | 6.9 |
| CN1CCC[C@@H](NC(=O)c2sc3nccc4c3c2NC(=O)N4c2cccc(-c3ccccc3)c2)C1 [Example 552, (R)-5-([1,1′-Biphenyl]-3-yl)-N-(1-methylpiperidin-3-yl)-4-oxo-4,5-dihydro-3H-1-thia-3,5,8-triazaacenaphthylene-2-carboxamide] | 6.8 |
| C=CC(=O)N1CCC[C@@H](NC(=O)c2sc3nccc4c3c2NC(=O)N4C(C)C)C1 [Example 357, (R)—N-(1-Acryloylpiperidin-3-yl)-5-isopropyl-4-oxo-4,5-dihydro-3H-1-thia-3,5,8-triazaacenaphthylene-2-carboxamide] | 5.1 |
| CNC/C=C/C(=O)N1CC[C@@H](NC(=O)c2sc3nccc4c3c2NC(=O)N4c2ccc(Oc3ccccc3)cc2C)C1 (single isomer, unassigned) [Example 492, (R,E)-5-(*S)-(2-Methyl-4-phenoxyphenyl)-N-(1-(4-(methylamino)but-2-enoyl)pyrrolidin-3-yl)-4-oxo-4,5-dihydro-3H-1-thia-3,5,8-triazaacenaphthylene-2-carboxamide] | 8.0 |

Same assay, conditions: unphosphorylated-BTK kinase domain, 50 nM Tracer 236, 60 minutes; pIC50 = negative log of the IC50 in molar; read-out: BTK_I_binding pIC50 (converted)

| Compound | IC50 [nM] |
| --- | --- |
| [2H]c1c([2H])c([2H])c(Oc2ccc(N3C(=O)Nc4c(C(=O)N[C@@H]5CCCN(C(=O)/C(C#N)=C/C6CC6)C5)sc5nccc3c45)c(C)c2)c([2H])c1[2H] [Example 378, (R,E)-N-(1-(2-Cyano-3-cyclopropylacryloyl)piperidin-3-yl)-5-(2-methyl-4-(2,3,4,5,6-pentadeuteriophenoxy)phenyl)-4-oxo-4,5-dihydro-3H-1-thia-3,5,8-triazaacenaphthylene-2-carboxamide] | 31.6 |
| [2H]c1c([2H])c([2H])c(Oc2ccc(N3C(=O)Nc4c(C(=O)N[C@@H]5CCCN(C)C5)sc5nccc3c45)c(C)c2)c([2H])c1[2H] [Example 381, (R)-5-(2-Methyl-4-(2,3,4,5,6-pentadeuteriophenoxy)phenyl)-N-(1-methylpiperidin-3-yl)-4-oxo-4,5-dihydro-3H-1-thia-3,5,8-triazaacenaphthylene-2-carboxamide] | 79.4 |

Same assay, conditions: unphosphorylated-BTK kinase domain, 60 minutes incubation, 50 nM Tracer 236; pIC50 = negative log of the IC50 in molar

| Compound | BTK_I_binding pIC50 |
| --- | --- |
| C=CC(=O)N1CCC(NC(=O)c2sc3nccc4c3c2NC(=O)N4c2ccc(Oc3ccccc3)cc2C)CC1 [Example 929, N-(1-Acryloylpiperidin-4-yl)-5-(2-methyl-4-phenoxyphenyl)-4-oxo-4,5-dihydro-3H-1-thia-3,5,8-triazaacenaphthylene-2-carboxamide] | 6.1 |

Source: patent US10800792B2, “Inhibitors of Bruton's tyrosine kinase and method of their use” (JANSSEN PHARMACEUTICA NV, priority 2015, dated 2020)
